Data reported in patent US20230414514A1, “FORMULATION TO DETER ABUSE OF DRUGS BY SMOKING” (Purdue Research Foundation, priority 2022, published 2023).

Test: Thermogravimetric analysis (TGA), thermal stability / decomposition
Type: physicochemical
Conditions: as stated in the description, conditions not given
Procedure: Samples of 8.0-18.2 mg were placed in platinum TGA sample pans (CS Ceramic) and heated from room temperature to 700° C. at 20° C./min in a furnace under either inert (nitrogen) or oxidizing (air) atmosphere. The experiments were performed in triplicates (n=3) or quintuplicates (n=5). The data were exported and the TGA curves were analysed using TA Universal Analysis Software (Universal Analysis 2000 Version 4.5A, TA Instruments-Waters LLC, New Castle, DE) to determine onset degradation temperatures (Ton,degradation) and weight percent losses of the materials used in this study over the temperature intervals of interest. The values were averaged and reported as mean±standard deviation.
FIG. 3A and FIG. 3B show the TGA profiles for PLA and PCL respectively. […] The mean Ton,degradation of PLA was 278.8±3.8° C., with the average weight percent loss of 98.6±0.3% (n=3) during the decomposition step. The mean Ton,degradation of PCL was 353.1±1.7° C., and the weight percent loss averaged 97.9±1.1% (n=3).
PLA-PCL MS with a 1:9 polymer ratio lost 12.3±0.8% weight (n=3) during the first decomposition step, and 84.7±0.6% weight (n=3) during the second step. The mean weight percent loss for the PLA-PCL MS with a 5:5 ratio of PLA to PCL was 56.5±0.9% (n=3) and 38.4±1.1% (n=3) during the first and second thermal degradation steps. […]

For `COC1=CC=C2[C@H]3Cc4ccc(OC)c5c4[C@@]2(CCN3C)[C@H]1O5` [THB, Thebaine], the thermal decomposition temperature was “about 183 °C”.
